In publication PMC10049354, “Anti-Inflammatory Effects and Photo- and Neuro-Protective Properties of BIO203, a New Amide Conjugate of Norbixin, in Development for the Treatment of Age-Related Macular Degeneration (AMD)” (International Journal of Molecular Sciences, 2023):

What was measured:
[1] = system: VEGF; design: method as in PMID 34544906; details: norbixin at 20 mM (so in the source); cited from earlier work
[2] = system: RXR; design: method as in PMID 34544906; details: porcine RPE cells in vitro; cited from earlier work
[3] = system: PPAR; experiment: PPAR transactivation assay (Cignal reporter, luciferase) induced by A2E; assay type: cell-based, pig; details: compound 20 μM; A2E 20 μM; RPE cells
Description: (§1) Transactivation assays were performed as previously described. Briefly, RPE cells were plated in DMEM 2% FCS at a density of 6 × 10^4 cells/cm^2. The next day transfections using the Cignal Reporter Assay Kits for PPAR, RXR, AP-1, and NF-κB were performed with Lipofectamine and Plus Reagent in serum-free medium. Three hours after the transfection, A2E and/or BIO203, both at 20 μM, were added to the culture medium for 24 h. Luciferase activity was measured using the Dual-Luciferase Reporter Assay System and with a luminometer (Infinite M1000 from Tecan, Mannedorf, Switzerland). At least 3 independent transfections were performed in triplicate for each condition.

[4] = system: AP-1; experiment: AP-1 transactivation assay induced by A2E; assay type: cell-based, pig; details: compound 20 μM; A2E 20 μM
Description: as §1

[5] = system: Abca4−/− Rdh8−/− mice; experiment: ERG after 6 months of oral complementation in Abca4−/− Rdh8−/− mice; assay type: in vivo, mouse
Description: The ERG in rats was performed using the electrophysiological system RETI-animal® from Roland Consult. ERG was recorded on both eyes from overnight dark-adapted animals. Rats were anesthetized by an intramuscular injection of a mix of Rompun® (xylazine)/Imalgene® (ketamine) before ERG measurement. Ten to fifteen minutes before measurement, one drop of Mydriaticum® (0.5% tropicamide) was instilled for pupillary dilatation. The A-wave and B-wave implicit times (ms) and amplitudes (µV) were measured for each ERG. The B-wave amplitude (value and %) was given as informative data. ERG parameters: Ganzfeld Q450C, Color: white maximum, Maximum intensity: 3 cd/m^2 (0 dB); Duration 0.24 ms; number of flashes: 1, Filter: 50 Hz, Impedance threshold: 50 kΩ. For scotopic ERGs, the A-wave amplitudes were measured from the baseline to the peak of the negative potential, whereas B-wave amplitudes were measured from the trough of the A-wave to the peak of the positive potential. The recordings obtained from these analyses were tabulated and normalized (%) for each eye. Group means, standard deviation, and median values were calculated, considering each eye from one animal as a separate value. ERG recordings in mice were performed as previously described.
(§2) A custom rodent diet was formulated and irradiated (25 kGy) by Envigo RMS SARL (Gannat, France). Low dose (LD)-BIO203 (50 μg/g) and high dose (HD)-BIO203 (500 μg/g) were incorporated into Teklad Custom Research Diet 2016© pellets. The pellets were stored at −20 °C until use and were administered ad libitum as the standard Teklad Global Rodent Diet 2016© used for the control group. The concentration of BIO203 in the customized pellets at the end of each batch was determined by HPLC MS/MS. The mean concentration was 46 μg/g ± 3.5 μg/g of pellet for the LD and 464 μg/g ± 24.3 μg/g of pellet for the HD. We calculated that in the LD group, male mice weighing 31.63 g after 2 months of complementation consumed 4.16 g of pellets, and in the HD group, male mice weighing 34.11 g after 2 months of complementation consumed 4.11 g of pellets every day, which correspond to a daily dose of 6.04 ± 0.46 mg/kg for the LD-BIO203 pellets and 55.91 ± 2.93 mg/kg for the HD-BIO203 pellets.
To test the preventive/curative action of oral administration of BIO203 against retinal neurodegeneration, a total of 27 Pigmented Abca4^−/− Rdh8^−/− mice carrying the Rpe65-Leu450 mutation and the rd8 mutation in the Crb1 gene from Case Western Reserve University of eleven to twelve months of age were used. […] After 6 months of complementation, ERG was measured in both eyes. […] In each group, half of the eyes were removed for A2E and BIO203 measurements, and half of the eyes were used for histological analyses and photoreceptor layer quantification.

[6] = BIO203 in plasma and eyes of mice after 6 months of BIO203-containing pellets; assay type: in vivo
Description: as §2
To test the preventive/curative action of oral administration of BIO203 against retinal neurodegeneration, a total of 27 Pigmented Abca4^−/− Rdh8^−/− mice carrying the Rpe65-Leu450 mutation and the rd8 mutation in the Crb1 gene from Case Western Reserve University of eleven to twelve months of age were used. Three groups of 9 males received control chow (Teklad Custom Research Diet 2016© pellets) or chow containing LD-BIO203 or HD-BIO203 orally for 6 months. After 6 months of complementation, ERG was measured in both eyes. In the control group, two mice died during the period of complementation and one mouse during ERG measurement. In the HD-BIO203 group, one mouse died before the end of complementation, and 3 mice died just after anesthesia. […] In each group, half of the eyes were removed for A2E and BIO203 measurements, and half of the eyes were used for histological analyses and photoreceptor layer quantification.
Analysis was performed on an LC 1260 System coupled with Mass Spectrometer QQQ-6420 with DAD (Agilent Technologies). […] BIO203 and its isomers were monitored by a mass spectrometer, in positive MRM mode, with the following transitions, respectively, 381.1 -> 144.9 and 478.1 -> 362.9. For quantification of BIO201 and BIO203, calibration curves were prepared under the same conditions as the sample matrix, with various amounts of BIO201 or BIO203 (25 to 10,000 ng/mL in plasma and 5 to 500 ng/mL for eyes).
For determination of norbixin or BIO203 concentrations in plasma, aliquots of plasma samples (25 μL) and internal standard (retinoic acid at 10 µg/mL) were distributed in a 96-well microtiter plate and precipitated with methanol (100 μL). […] Under these conditions, with 5 μL injections, the limit of quantification (LOQ) was 25 ng/mL (0.33 pmol for BIO201 and 0.26 pmol for BIO203). […]

Structure (SMILES) | effect on VEGF mRNA expression [1] | inhibition of RXR transactivation induced by A2E [2] | inhibition of PPAR transactivation induced by A2E [3] | inhibition of AP1 transactivation induced by A2E [4] | photopic B wave ERG compared with control pellets ([5]; HD pellets) | scotopic A wave ERG compared with control pellets ([5]; HD pellets, flash intensities 1 and 10 cd.s/m^2, p < 0.05) | scotopic B wave ERG compared with control pellets ([5]; HD pellets, flash intensity 30 cd.s/m^2, p < 0.05) | effect on the visual function (ERG) ([5]; LD pellets) | BIO203 in the eyes ([6]; HD pellets (500 μg/g)) | BIO203 in the plasma ([6]; HD pellets (500 μg/g)) | BIO203 in the eyes ([6]; LD pellets (50 μg/g)) | BIO203 in the plasma ([6]; LD pellets (50 μg/g))
CC(=C/C=C/C(C)=C/C=C/C=C(C)/C=C/C=C(C)/C=C/C(=O)O)/C=C/C(=O)O [norbixin, 9′-cis-norbixin] | significantly reduced | significantly inhibited | – | – | – | – | – | – | – | – | – | –
COC1CCCN(C(=O)/C=C/C(C)=C/C=C/C(C)=C/C=C/C=C(C)/C=C/C=C(C)\C=C\C(=O)O)C1 (stereo not drawn) [BIO203] | – | – | entirely inhibits | inhibited | no significant difference | significantly superior | reduced the loss | No effect | not detected | detected | not detected | absence of BIO203 plasmatic exposure
